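Test compounds were applied to cells in 96-well plates for 48 hours at 5 doses. At the GI50, growth is halved.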 Calls of active or inactive are those of the source. No stated cut-off is given here; in the data, active = GI50 up to about 1.1 µM and inactive = higher.
Experiments:
Experiment in all cases: NCI tumour cell line growth inhibition, 48 h
COLO 205 = tested on: COLO 205
RXF 393 = tested on: RXF 393
SF-268 = tested on: SF-268
HOP-92 = tested on: HOP-92
NCI-H460 = tested on: NCI-H460
SW-620 = tested on: SW-620
SK-MEL-2 = tested on: SK-MEL-2
TK-10 = tested on: TK-10
A549 = tested on: A549
OVCAR-4 = tested on: OVCAR-4
EKVX = tested on: EKVX
HT-29 = tested on: HT-29
SR = tested on: SR
IGROV-1 = tested on: IGROV-1
HOP-62 = tested on: HOP-62
NCI-H23 = tested on: NCI-H23
CAKI-1 = tested on: CAKI-1
NCI-H226 = tested on: NCI-H226

Measured: GI50

O=C1C(Cl)N(c2cccc([N+](=O)[O-])c2)C1c1c[nH]c2ccccc12 (stereo unspecified)
inactive: COLO 205 22.5 µM | RXF 393 12.9 µM | SF-268 29.6 µM | HOP-92 19 µM | NCI-H460 12.1 µM | SW-620 21.7 µM | SK-MEL-2 14.4 µM | TK-10 20.4 µM | A549 22.1 µM | OVCAR-4 18.1 µM | EKVX 28.4 µM | HT-29 17.1 µM | SR 10.7 µM | IGROV-1 16.4 µM | HOP-62 17.1 µM | NCI-H23 22.2 µM

O=C1CSC(Cc2nc3ccccc3[nH]2)=N1
inactive: COLO 205 23.5 µM | RXF 393 18.7 µM | SF-268 16.7 µM | HOP-92 29.9 µM | CAKI-1 15.8 µM | SW-620 31.9 µM | SK-MEL-2 16.3 µM | TK-10 28.2 µM | A549 21.6 µM | OVCAR-4 18.5 µM | EKVX 33.7 µM | HT-29 24.7 µM | SR 5.83 µM | IGROV-1 26.6 µM | NCI-H226 13.9 µM | HOP-62 22.3 µM | NCI-H23 18.6 µM

CC(=O)c1ccc(NC(=O)C(=O)C(C#N)CC(C)(C)C=O)cc1 (stereo unspecified)
inactive: COLO 205 > 100 µM | SF-268 > 100 µM | HOP-92 68.4 µM | CAKI-1 > 100 µM | NCI-H460 > 100 µM | SW-620 > 100 µM | SK-MEL-2 > 100 µM | TK-10 > 100 µM | A549 > 100 µM | OVCAR-4 > 100 µM | EKVX > 100 µM | HT-29 > 100 µM | SR > 100 µM | IGROV-1 > 100 µM | NCI-H226 > 100 µM | HOP-62 > 100 µM | NCI-H23 > 100 µM

CC(=O)Nc1ccc(C(=O)NN2C(=O)C(Cl)C2c2cc(Br)cc(Br)c2O)cc1 (stereo unspecified)
inactive: COLO 205 > 100 µM | SF-268 > 100 µM | HOP-92 > 100 µM | CAKI-1 > 100 µM | NCI-H460 > 100 µM | SW-620 > 100 µM | SK-MEL-2 > 100 µM | A549 > 100 µM | OVCAR-4 > 100 µM | EKVX > 100 µM | SR > 100 µM | IGROV-1 52.6 µM | NCI-H226 > 100 µM | HOP-62 > 100 µM | NCI-H23 > 100 µM

C#CCCCCC#CC1CCCC1C1=CC(=O)c2ccccc21 (stereo unspecified)
inactive: COLO 205 15.3 µM | RXF 393 4.81 µM | SF-268 3.32 µM | HOP-92 4.09 µM | NCI-H460 15.3 µM | SW-620 2.28 µM | SK-MEL-2 11.2 µM | TK-10 20.3 µM | A549 13.5 µM | OVCAR-4 10.3 µM | EKVX 14.8 µM | HT-29 4.5 µM | SR 2.79 µM | IGROV-1 6 µM | NCI-H226 14.5 µM | HOP-62 7.36 µM | NCI-H23 10.6 µM

O=C(O)CCc1cccc2c1oc1c(CCC(=O)O)cccc12
inactive: COLO 205 > 100 µM | RXF 393 > 100 µM | SF-268 > 100 µM | HOP-92 > 100 µM | CAKI-1 > 100 µM | NCI-H460 > 100 µM | SW-620 > 100 µM | SK-MEL-2 > 100 µM | TK-10 > 100 µM | A549 > 100 µM | OVCAR-4 > 100 µM | HT-29 > 100 µM | SR > 100 µM | IGROV-1 > 100 µM | NCI-H226 > 100 µM | NCI-H23 > 100 µM

O=C(CSSCC(=O)Nc1ccc(Br)cc1)Nc1ccc(Br)cc1
inactive: COLO 205 28.5 µM | RXF 393 18.7 µM | SF-268 13.7 µM | HOP-92 19 µM | CAKI-1 24.2 µM | NCI-H460 16.9 µM | SW-620 15.2 µM | TK-10 16.7 µM | A549 16.8 µM | OVCAR-4 20 µM | EKVX 26.5 µM | HT-29 20.9 µM | SR 10.3 µM | IGROV-1 18.2 µM | NCI-H226 16.9 µM | HOP-62 12.4 µM | NCI-H23 19.3 µM

Cc1cccc(C)c1NC(=O)CCC(=O)NC(N)=S
inactive: COLO 205 > 100 µM | RXF 393 > 100 µM | HOP-92 > 100 µM | CAKI-1 > 100 µM | NCI-H460 > 100 µM | SW-620 > 100 µM | TK-10 > 100 µM | A549 > 100 µM | EKVX > 100 µM | HT-29 > 100 µM | SR > 100 µM | IGROV-1 > 100 µM | NCI-H226 > 100 µM | HOP-62 > 100 µM | NCI-H23 > 100 µM

COC(c1cccc(C(O)(C(F)(F)F)C(F)(F)F)c1)(C(F)(F)F)C(F)(F)F
inactive: COLO 205 19.3 µM | RXF 393 20.4 µM | SF-268 23.7 µM | CAKI-1 24.4 µM | NCI-H460 18.3 µM | SW-620 18.8 µM | SK-MEL-2 18.2 µM | TK-10 22.1 µM | A549 16.6 µM | OVCAR-4 16.7 µM | EKVX 17.9 µM | HT-29 17.5 µM | SR 32.1 µM | IGROV-1 20.2 µM | NCI-H226 18.2 µM | HOP-62 19.1 µM | NCI-H23 19.7 µM

O=c1[nH]cc(COCC(F)(F)C(F)(F)C(F)(F)C(F)F)c(=O)[nH]1
inactive: COLO 205 > 100 µM | RXF 393 > 100 µM | SF-268 > 100 µM | HOP-92 > 100 µM | CAKI-1 > 100 µM | SW-620 > 100 µM | SK-MEL-2 > 100 µM | TK-10 > 100 µM | A549 > 100 µM | EKVX > 100 µM | HT-29 > 100 µM | SR > 100 µM | IGROV-1 > 100 µM | HOP-62 > 100 µM | NCI-H23 > 100 µM

COc1cccc(NC(=O)CC(=O)n2nc(C)c(/N=N/c3ccccc3)c2C)c1
inactive: COLO 205 > 100 µM | SF-268 > 100 µM | HOP-92 > 100 µM | CAKI-1 > 100 µM | SW-620 > 100 µM | TK-10 85.7 µM | A549 > 100 µM | OVCAR-4 > 100 µM | EKVX 58.6 µM | HT-29 > 100 µM | SR 78.7 µM | IGROV-1 > 100 µM | NCI-H226 28.5 µM | HOP-62 > 100 µM | NCI-H23 > 100 µM

Cc1cc(C)n(CCNCCn2nc(C)cc2C)n1
inactive: COLO 205 > 100 µM | RXF 393 > 100 µM | SF-268 > 100 µM | HOP-92 > 100 µM | CAKI-1 > 100 µM | NCI-H460 > 100 µM | SW-620 > 100 µM | TK-10 > 100 µM | A549 > 100 µM | OVCAR-4 > 100 µM | EKVX > 100 µM | SR > 100 µM | HOP-62 > 100 µM | NCI-H23 > 100 µM
